From US6737383B1, “Herbicidal oxadiazolidines” (priority 1999, dated 2004)

Columns and labels:
[1] = tested on: cocklebur; assay: Test B pre/postemergence cocklebur; type: in vivo, Xanthium strumarium
Procedure, shortened: (§1)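 Test chemicals in a non-phytotoxic solvent mixture with surfactant were sprayed preemergence onto planted seeds and postemergence onto plants 2 to 18 cm tall (1- to 4-leaf stage). After twelve to sixteen days in a greenhouse, injury was visually rated against untreated controls from 0 (no effect) to 10 (complete control).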

[2] = tested on: crabgrass; assay: Test B pre/postemergence crabgrass; type: in vivo, Digitaria sanguinalis
Procedure, shortened: as §1

[3] = tested on: velvetleaf; assay: Test B pre/postemergence velvetleaf; type: in vivo, Abutilon theophrasti; settings: for Plant response rating, Velvetleaf: Rate 250 g/ha
Procedure, shortened: as §1

[4] = tested on: rice; assay: Test B flood test rice; type: in vivo, Oryza sativa
Procedure, shortened: (§2)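 Flood test on plants grown to the 2-leaf stage; treated plants kept in greenhouse twelve to sixteen days, then visually rated against controls on a 0 (no effect) to 10 (complete control) scale.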

[5] = tested on: blackgrass; assay: Test B pre/postemergence blackgrass; type: in vivo, Alopecurus myosuroides
Procedure, shortened: as §1

[6] = tested on: surinam grass; assay: Test B pre/postemergence surinam grass; type: in vivo, Brachiaria decumbens
Procedure, shortened: as §1

[7] = tested on: bamyardgrass; assay: Test B flood test barnyardgrass; type: in vivo, Echinochloa crus-galli
Procedure, shortened: as §2

[8] = tested on: wheat; assay: Test B pre/postemergence wheat; type: in vivo, Triticum aestivum; settings: for Plant response rating, Wheat: Rate 250 g/ha
Procedure, shortened: as §1

[9] = tested on: corn; assay: Test B pre/postemergence corn; type: in vivo, Zea mays
Procedure, shortened: as §1

[10] = tested on: pigweed; assay: Test B pre/postemergence pigweed; type: in vivo, Amaranthus retroflexus
Procedure, shortened: as §1

[11] = tested on: giant foxtail; assay: Test B pre/postemergence giant foxtail; type: in vivo, Setaria faberii
Procedure, shortened: as §1

[12] = tested on: wild oat; assay: Test B pre/postemergence wild oat; type: in vivo, Avena fatua; settings: for Plant response rating, Wild oats: Rate 250 g/ha
Procedure, shortened: as §1

[13] = tested on: bedstraw; assay: Test B pre/postemergence bedstraw; type: in vivo, Galium aparine
Procedure, shortened: as §1

[14] = tested on: soybean; assay: Test B pre/postemergence soybean; type: in vivo, Glycine max
Procedure, shortened: as §1

[15] = tested on: smallflower flatsedge; assay: Test B flood test smallflower flatsedge; type: in vivo, Cyperus difformis
Procedure, shortened: as §2

[16] = tested on: morningglory; assay: Test B pre/postemergence morningglory; type: in vivo, Ipomoea hederacea
Procedure, shortened: as §1

[17] = Postemergence, Rate 125 g/ha, scale of 0 to 10 where 0 is no effect and 10 is complete control
[18] = Postemergence, Rate 250 g/ha, scale 0 to 10, 0 no effect, 10 complete control
[19] = Preemergence, Rate 62 g/ha, scale 0 to 10 (0 no effect, 10 complete control)
[20] = Preemergence, Rate 125 g/ha, scale 0 to 10 (0 no effect, 10 complete control)
[21] = Preemergence, Rate 250 g/ha, scale of 0 to 10 where 0 is no effect and 10 is complete control
[22] = Rate 62 g/ha, Postemergence, scale of 0 to 10 where 0 is no effect and 10 is complete control
[23] = Rate 500 g/ha, Postemergence, scale 0 to 10, 0 no effect, 10 complete control
[24] = Preemergence, Rate 500 g/ha, scale 0 to 10 (0 no effect, 10 complete control)
[25] = Preemergence, Rate 125 g/ha, 0 is no effect, 10 is complete control
[26] = Preemergence, scale of 0 to 10 where 0 is no effect and 10 is complete control
[27] = Postemergence, scale 0 to 10, 0 is no effect, 10 is complete control
[28] = Postemergence (flood test species), Rate 125 g/ha, scale of 0 to 10 where 0 is no effect and 10 is complete control
[29] = Rate 62 g/ha, Postemergence section, flood test species, scale of 0 to 10 where 0 is no effect and 10 is complete control
[30] = Rate 250 g/ha, Postemergence (flood test), scale 0 to 10, 0 is no effect, 10 is complete control
[31] = Rate 500 g/ha, listed under Postemergence (flood test species), scale 0 to 10, 0 no effect, 10 complete control
[32] = Postemergence, Rate 62 g/ha, scale 0 to 10, 0 is no effect, 10 is complete control
[33] = Rate 125 g/ha, Postemergence, scale 0 to 10, 0 no effect, 10 complete control
[34] = Rate 250 g/ha, Postemergence, scale 0 to 10, 0 is no effect, 10 is complete control

SMILES: CC(C)N(C(=O)n1oc(=O)n(C(C)C)c1=O)c1ccc(Cl)cc1 [Compound 114]
- Cocklebur plant response rating [1, 17]: 0
- Cocklebur plant response rating [1, 18]: 0
- Cocklebur plant response rating [1, 19]: 0
- Plant response rating, Cocklebur [1, 20]: 0
- Plant response rating, Cocklebur [1, 21]: 0
- Cocklebur plant response rating [1, 22]: 0
- Cocklebur plant response rating [1, 23]: 0
- Crabgrass plant response rating [2, 17]: 8
- Crabgrass plant response rating [2, 18]: 9
- Crabgrass plant response rating [2, 19]: 2
- Plant response rating, Crabgrass [2, 20]: 7
- Plant response rating, Crabgrass [2, 21]: 9
- Crabgrass plant response rating [2, 24]: 9
- Crabgrass plant response rating [2, 22]: 2
- Crabgrass plant response rating [2, 23]: 9
- Velvetleaf plant response rating [3, 17]: 1
- Velvetleaf plant response rating [3, 19]: 4
- Velvetleaf plant response rating (0 to 10 scale) [3, 25]: 4
- Plant response rating, Velvetleaf [3, 26]: 5
- Velvetleaf plant response rating [3, 24]: 6
- Velvetleaf plant response rating [3, 22]: 0
- Plant response rating, Velvetleaf [3, 27]: 3
- Velvetleaf plant response rating [3, 23]: 3
- Rice plant response rating [4, 28]: 0
- Rice plant response rating [4, 29]: 0
- Plant response rating, Rice [4, 30]: 0
- Rice plant response rating [4, 31]: 0
- Blackgrass plant response rating [5, 17]: 2
- Blackgrass plant response rating [5, 18]: 7
- Blackgrass plant response rating [5, 19]: 6
- Plant response rating, Blackgrass [5, 20]: 8
- Plant response rating, Blackgrass [5, 21]: 10
- Blackgrass plant response rating [5, 24]: 10
- Blackgrass plant response rating [5, 22]: 0
- Blackgrass plant response rating [5, 23]: 8
- B. signalgrass plant response rating [6, 32]: 0
- B. signalgrass plant response rating [6, 18]: 5
- B. signalgrass plant response rating [6, 19]: 0
- Plant response rating, B. signalgrass [6, 20]: 0
- Plant response rating, B. signalgrass [6, 21]: 7
- B. signalgrass plant response rating [6, 24]: 10
- B. signalgrass plant response rating [6, 33]: 0
- B. signalgrass plant response rating ([6]; Rate 500 g/ha, Postemergence, scale of 0 to 10 where 0 is no effect and 10 is complete control): 7
- Barnyardgrass plant response rating [7, 32]: 0
- Barnyardgrass plant response rating ([7]; Rate 125 g/ha, Postemergence section (flood test species), scale 0 to 10, 0 no effect, 10 complete control): 0
- Barnyardgrass plant response rating [7, 31]: 0
- Barnyardgrass plant response rating ([7]; flood test, listed under Postemergence, Rate 250 g/ha, scale 0 to 10, 0 no effect, 10 complete control): 0
- Wheat plant response rating [8, 17]: 0
- Wheat plant response rating [8, 19]: 0
- Wheat plant response rating (0 to 10 scale) [8, 25]: 0
- Plant response rating, Wheat [8, 26]: 2
- Wheat plant response rating [8, 24]: 8
- Wheat plant response rating [8, 22]: 0
- Plant response rating, Wheat [8, 27]: 0
- Wheat plant response rating [8, 23]: 0
- Corn plant response rating [9, 17]: 0
- Corn plant response rating [9, 18]: 0
- Corn plant response rating [9, 19]: 0
- Plant response rating, Corn [9, 20]: 0
- Plant response rating, Corn [9, 21]: 7
- Corn plant response rating [9, 24]: 9
- Corn plant response rating [9, 22]: 0
- Corn plant response rating [9, 23]: 0
- Redroot pigweed plant response rating [10, 17]: 2
- Redroot pigweed plant response rating [10, 19]: 5
- Plant response rating, Redroot pigweed [10, 20]: 8
- Plant response rating, Redroot pigweed [10, 21]: 10
- Redroot pigweed plant response rating [10, 24]: 10
- Redroot pigweed plant response rating [10, 22]: 0
- Plant response rating, Redroot pigweed [10, 34]: 3
- Redroot pigweed plant response rating [10, 23]: 3
- Giant foxtail plant response rating [11, 17]: 9
- Giant foxtail plant response rating [11, 18]: 9
- Giant foxtail plant response rating [11, 19]: 5
- Plant response rating, Giant foxtail [11, 20]: 9
- Plant response rating, Giant foxtail [11, 21]: 10
- Giant foxtail plant response rating [11, 24]: 10
- Giant foxtail plant response rating [11, 22]: 5
- Giant foxtail plant response rating [11, 23]: 9
- Wild oats plant response rating [12, 17]: 0
- Wild oats plant response rating [12, 19]: 5
- Wild oats plant response rating (0 to 10 scale) [12, 25]: 7
- Plant response rating, Wild oats [12, 26]: 9
- Wild oats plant response rating [12, 24]: 10
- Wild oats plant response rating [12, 22]: 0
- Plant response rating, Wild oats [12, 27]: 2
- Wild oats plant response rating [12, 23]: 2
- Bedstraw plant response rating [13, 32]: 3
- Bedstraw plant response rating [13, 18]: 6
- Bedstraw plant response rating [13, 19]: 0
- Plant response rating, Bedstraw [13, 20]: 0
- Plant response rating, Bedstraw [13, 21]: 0
- Bedstraw plant response rating [13, 24]: 0
- Bedstraw plant response rating [13, 33]: 6
- Bedstraw plant response rating [13, 23]: 7
- Soybean plant response rating [14, 17]: 3
- Soybean plant response rating [14, 19]: 0
- Plant response rating, Soybean [14, 20]: 0
- Plant response rating, Soybean [14, 21]: 0
- Soybean plant response rating [14, 24]: 3
- Soybean plant response rating [14, 22]: 3
- Plant response rating, Soybean [14, 34]: 5
- Soybean plant response rating [14, 23]: 7
- S. Flatsedge plant response rating [15, 28]: 0
- S. Flatsedge plant response rating [15, 29]: 0
- Plant response rating, S. Flatsedge [15, 30]: 0
- S. Flatsedge plant response rating [15, 31]: 0
- Morningglory plant response rating [16, 17]: 4
- Morningglory plant response rating [16, 18]: 4
- Morningglory plant response rating [16, 19]: 0
- Plant response rating, Morningglory [16, 20]: 0
- Plant response rating, Morningglory [16, 21]: 0
- Morningglory plant response rating [16, 24]: 1
- Morningglory plant response rating [16, 22]: 1
- Morningglory plant response rating [16, 23]: 8
